Results published in paper PMC4763008, “Selective Inhibition of Bakuchicin Isolated from Psoralea corylifolia on CYP1A in Human Liver Microsomes” (Evidence-based Complementary and Alternative Medicine : eCAM, 2016).
Entries after “also recorded” stand apart in the source; their conditions may differ. Like-named read-outs stand apart in the source and are kept apart here.

Columns and labels:
Assay type in all cases: in vitro ADME
[1] = target: T1, CYP2C19 (Homo sapiens, UniProt P33261); assay: CYP inhibition, cocktail of probe substrates in pooled human liver microsomes: omeprazole 5-hydroxylation; settings: pooled HLMs, substrate 20 μM
T1 construct: tissue Corning Gentest BD UltraPool HLM 150; host or cells: pooled human liver microsomes
Description: (§1) All incubations were performed in duplicate, and data are presented as means. Briefly, each reaction was performed with 0.5 mg/mL pooled human liver microsomes in a final incubation volume of 0.1 mL. The incubation medium consisted of 0.1 M potassium phosphate buffer (pH 7.4) containing cocktail of probe substrates and a NADPH-generating system (NGS) of 0.1 M glucose 6-phosphate, 10 mg/mL β-NADPH, and 1.0 U/mL glucose-6-phosphate dehydrogenase. To investigate the IC50 of bakuchicin during CYP1A inhibition, bakuchicin (at final concentrations of 0–25 μM) was incubated without preincubation. In addition, the mixture with bakuchicin was preincubated for 15 min without the probe substrate cocktail in the presence or absence of 1 mM β-NADPH. After the reaction was initiated by adding the NGS for 60 min, incubated samples were terminated by adding 100 μL acetonitrile containing 0.1% formic acid and 2.5 μL of internal standard solution (5 μM reserpine) in methanol. After mixing and centrifuging at 13,000 ×g for 12 min, a 5 μL aliquot was injected onto a C18 column for LC-MS/MS analysis.
(§2) All measurements were performed using LC-MS/MS in multiple reaction monitoring mode. LC-MS/MS was performed using an Accela™ LC system coupled to a TSQ Vantage triple quadrupole mass spectrometer (Thermo Fisher Scientific Inc., USA) equipped with a HESI-II Spray source. Electrospray ionization was performed in positive mode at a spray voltage of 3,500 V (except for the detection of 6-hydroxy chlorzoxazone). Nitrogen was used as a sheath and auxiliary gas at optimum values of 45 and 20 (arbitrary units), respectively. Vaporizer and capillary temperatures were 150 and 300°C, respectively. For LC analysis an Inertsil® ODS-2 (3 μm, 2.1 × 150 mm) column (GL Sciences Inc., Torrance, CA) was used. The mobile phase consisted of acetonitrile (mobile phase A) and water (mobile phase B), both of which contained 0.1% formic acid, at a flow rate of 0.22 mL/min at 30°C.
(§3) All incubations were performed in duplicate, and data are presented as means. […]

[2] = target: T2, CYP1A (Homo sapiens, UniProt P05177); assay: Inhibition mode on CYP1A-catalyzed phenacetin O-deethylation in HLMs (Lineweaver-Burk and secondary plot); settings: for inhibition mechanism on CYP1A in HLMs: pooled HLMs, phenacetin O-deethylation, Lineweaver-Burk plot / IC50 shift
T2 sequence (P05177 2-516): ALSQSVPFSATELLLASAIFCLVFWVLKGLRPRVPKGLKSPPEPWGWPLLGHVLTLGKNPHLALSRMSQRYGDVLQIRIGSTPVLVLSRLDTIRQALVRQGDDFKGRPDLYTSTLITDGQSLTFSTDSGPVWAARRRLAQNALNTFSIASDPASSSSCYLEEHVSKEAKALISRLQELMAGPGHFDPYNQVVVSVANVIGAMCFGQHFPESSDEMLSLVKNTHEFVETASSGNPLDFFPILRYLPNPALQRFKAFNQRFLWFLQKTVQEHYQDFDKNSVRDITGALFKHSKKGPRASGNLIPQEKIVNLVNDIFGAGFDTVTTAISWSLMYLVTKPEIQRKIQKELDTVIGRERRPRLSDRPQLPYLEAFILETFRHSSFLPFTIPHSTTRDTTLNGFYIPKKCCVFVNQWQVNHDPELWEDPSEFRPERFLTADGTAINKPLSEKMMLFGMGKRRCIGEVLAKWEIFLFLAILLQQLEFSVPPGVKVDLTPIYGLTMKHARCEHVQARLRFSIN
Description: To characterize the inhibition mode on CYP1A by bakuchicin, 0.5 mg/mL of HLMs was incubated with bakuchicin at 0, 0.2, 0.4, and 0.8 μM in 0.1 M potassium phosphate buffer (pH 7.4) for 60 min at 37°C. Those were terminated by adding 100 μL acetonitrile containing 0.1% formic acid and 2.5 μL of internal standard solution (5 μM reserpine) in methanol. After mixing and centrifuging at 13,000 ×g for 12 min, a 5 μL aliquot was injected onto a C18 column for LC-MS/MS analysis. Phenacetin was used as a probe substrate at 20, 40, or 80 μM. The inhibition pattern was investigated by Michaelis-Menten and its secondary plotting.
as §2
All incubations were performed in duplicate, and data are presented as means. IC50 values (the concentration of inhibitor causing a 50% inhibition in enzyme activity) were obtained using percent activity versus log[I] concentration plots. Kinetic parameters were estimated by curve fitting using SigmaPlot (version 12.0, Systat Software, Inc.).

[3] = target: T3, CYP2D6 (Homo sapiens, UniProt P10635); assay: CYP inhibition, cocktail of probe substrates in pooled human liver microsomes: dextromethorphan O-demethylation; settings: pooled HLMs, dextromethorphan O-deethylation, substrate 5 μM
T3 construct: each reaction was performed with 0.5 mg/mL pooled human liver microsomes; tissue Corning Gentest BD UltraPool HLM 150; host or cells: pooled human liver microsomes

[4] = target: T4, CYP3A4 (Homo sapiens, UniProt P08684); assay: CYP inhibition, cocktail of probe substrates in pooled human liver microsomes: midazolam 1'-hydroxylation; settings: pooled HLMs, substrate 2.5 μM
T4 construct: each reaction was performed with 0.5 mg/mL pooled human liver microsomes; tissue Corning Gentest BD UltraPool HLM 150; host or cells: pooled human liver microsomes

[5] = target: T5, CYP2E1 (Homo sapiens, UniProt P05181); assay: CYP inhibition, cocktail of probe substrates in pooled human liver microsomes: chlorzoxazone 6-hydroxylation; settings: pooled HLMs, substrate 50 μM
T5 construct: tissue Corning Gentest BD UltraPool HLM 150; host or cells: pooled human liver microsomes
Description: as §1, §2, §3

[6] = 15 min preincubation with NADPH, read-out: IC50 With preincubation with NADPH
[7] = 15 min preincubation without NADPH, read-out: IC50 With preincubation Without NADPH
[8] = without preincubation, read-out: IC50 Without preincubation

T1 sequence (P33261 whole entry): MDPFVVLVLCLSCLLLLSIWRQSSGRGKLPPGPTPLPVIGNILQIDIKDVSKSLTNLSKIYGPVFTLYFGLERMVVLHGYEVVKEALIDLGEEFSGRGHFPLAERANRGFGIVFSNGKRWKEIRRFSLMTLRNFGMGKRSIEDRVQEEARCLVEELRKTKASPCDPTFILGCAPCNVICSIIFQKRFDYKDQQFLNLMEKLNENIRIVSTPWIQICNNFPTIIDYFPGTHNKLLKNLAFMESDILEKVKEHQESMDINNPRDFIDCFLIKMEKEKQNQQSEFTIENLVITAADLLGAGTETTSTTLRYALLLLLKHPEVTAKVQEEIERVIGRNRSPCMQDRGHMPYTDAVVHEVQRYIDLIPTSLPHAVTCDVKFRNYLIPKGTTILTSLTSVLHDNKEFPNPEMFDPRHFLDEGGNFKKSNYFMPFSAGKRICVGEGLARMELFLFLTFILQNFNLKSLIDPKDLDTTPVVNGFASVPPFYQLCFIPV
T5 sequence (P05181 whole entry): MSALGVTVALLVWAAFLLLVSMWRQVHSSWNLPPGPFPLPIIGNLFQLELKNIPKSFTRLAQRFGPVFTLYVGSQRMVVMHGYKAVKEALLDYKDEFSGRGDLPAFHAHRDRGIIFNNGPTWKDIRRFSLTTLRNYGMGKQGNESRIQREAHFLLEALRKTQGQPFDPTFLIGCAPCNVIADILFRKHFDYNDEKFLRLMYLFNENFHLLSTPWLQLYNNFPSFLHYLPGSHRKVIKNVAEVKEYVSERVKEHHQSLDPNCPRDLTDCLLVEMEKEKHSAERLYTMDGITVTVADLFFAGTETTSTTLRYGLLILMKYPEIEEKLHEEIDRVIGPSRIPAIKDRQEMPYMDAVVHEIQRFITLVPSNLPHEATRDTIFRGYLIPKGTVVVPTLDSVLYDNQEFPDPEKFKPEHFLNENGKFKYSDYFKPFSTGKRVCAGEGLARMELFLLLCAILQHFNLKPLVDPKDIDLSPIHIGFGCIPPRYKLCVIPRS
T3 sequence (P10635 whole entry): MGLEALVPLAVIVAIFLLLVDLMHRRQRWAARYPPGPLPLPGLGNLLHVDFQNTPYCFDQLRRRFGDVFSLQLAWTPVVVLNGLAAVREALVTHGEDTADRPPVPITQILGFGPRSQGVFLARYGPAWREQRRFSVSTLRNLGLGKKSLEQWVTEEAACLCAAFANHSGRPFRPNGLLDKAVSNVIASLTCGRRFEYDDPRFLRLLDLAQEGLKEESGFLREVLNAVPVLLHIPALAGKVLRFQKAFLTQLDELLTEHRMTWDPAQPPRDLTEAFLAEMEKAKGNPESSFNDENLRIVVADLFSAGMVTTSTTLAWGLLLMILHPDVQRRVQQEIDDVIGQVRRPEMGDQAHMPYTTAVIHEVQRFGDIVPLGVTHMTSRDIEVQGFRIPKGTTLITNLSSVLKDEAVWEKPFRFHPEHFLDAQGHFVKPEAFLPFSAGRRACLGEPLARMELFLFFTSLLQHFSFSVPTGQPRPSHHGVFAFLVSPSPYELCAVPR
T4 sequence (P08684 whole entry): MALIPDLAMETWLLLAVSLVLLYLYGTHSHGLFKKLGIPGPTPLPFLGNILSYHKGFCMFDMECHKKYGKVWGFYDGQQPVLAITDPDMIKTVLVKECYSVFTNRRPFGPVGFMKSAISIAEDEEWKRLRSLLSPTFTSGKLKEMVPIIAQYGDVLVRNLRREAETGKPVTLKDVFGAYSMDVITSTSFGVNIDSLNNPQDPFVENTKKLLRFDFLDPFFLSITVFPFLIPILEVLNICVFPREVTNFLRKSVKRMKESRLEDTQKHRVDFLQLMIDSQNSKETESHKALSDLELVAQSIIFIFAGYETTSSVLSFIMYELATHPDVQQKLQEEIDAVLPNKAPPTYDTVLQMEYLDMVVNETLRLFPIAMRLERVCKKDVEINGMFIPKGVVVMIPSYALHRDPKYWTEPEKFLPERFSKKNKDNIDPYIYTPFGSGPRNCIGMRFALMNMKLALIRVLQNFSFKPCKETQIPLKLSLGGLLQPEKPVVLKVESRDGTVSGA

Work on `O=c1ccc2c(ccc3ccoc32)o1` [Bakuchicin] yielded an IC50 [1, 6] greater than 100 µM, an IC50 [1, 7] greater than 100 µM and an IC50 [1, 8] greater than 100 µM. The Ki at 60 min ([2]; human, pooled human liver microsomes, pH 7.4, probe phenacetin (O-deethylation), phenacetin 20, 40, 80 μM, 60 min incubation) was 0.09 µM, the “inhibition mechanism on CYP1A in HLMs” value [2] was “reversible competitive inhibitor” and the “inhibition mechanism on CYP1A in HLMs” value ([2]; listed as bakuchicin) was “competitive inhibition; also recorded: reversible inhibitor”. For the same compound, the IC50 [3, 6] was 15.1 µM, the IC50 [3, 7] was 21.7 µM and the IC50 [3, 8] was 18.2 µM. It also gave an IC50 [4, 6] greater than 100 µM, an IC50 [4, 7] greater than 100 µM and an IC50 [4, 8] greater than 100 µM. The IC50 [5, 6] was greater than 100 µM, the IC50 [5, 7] was greater than 100 µM and the IC50 [5, 8] was greater than 100 µM.
